Assay results as given in US20100298394A1, “ANTIFUNGAL AGENTS AS NEUROPROTECTANTS” (THE JOHNS HOPKINS UNIVERSITY, priority 2007, published 2010).

Assays:
[1] = system: rat mixed hippocampal cultures; assay: Titration of 3-NP toxicity, MTT endpoint; assay type: cell-based; settings: 3 mM 3-NP, 18 hours, compared to 0.1% DMSO vehicle control
Procedure: FIG. 1 presents an illustrative titration of 3-NP toxicity in rat mixed hippocampal cultures. Rat mixed hippocampal cultures, day 11-14 in vitro, were subjected to 18 hour exposure to 3-NP, followed by MTT treatment to quantitate cell viability.
(§1) Rat mixed hippocamal neuronal cultures are generated from freshly dissected rat hippocampi (embryonic day 18) in neurobasal media containing 5% fetal bovine serum and 2% B27 supplement. The cells are plated into 96 well plates at a density of 4×10^5 cells/mL and routinely used on days 11-14 following culturing. Cell viability is assessed with MTT [3-(4,5-dimethylthiazol-2-yl)-2,5-diphenyltetrazolium bromide] assay. The MTT assay is based on the ability of a mitochondrial dehydrogenase enzyme from viable cells to cleave the tetrazolium rings of the pale yellow MTT and form dark blue formazan crystals. See Mosmann (1983), J Immunol Methods, 65(1-2):55-63. These crystals are largely impermeable to cell membranes, and thus accumulate within healthy cells. The resultant formazan precipitates are solubilized with DMSO and read on a multiwell scanning spectrophotometer (ELISA reader). The number of surviving cells is directly proportional to the level of the formazan product created.
(§2) Mixed hippocampal cultures are incubated with 3-NP (0.5-10 mM) for 18 hours in a 0.1% DMSO vehicle and then assessed for viability using an MTT assay.

[2] = system: rat mixed hippocampal cultures; assay: 3-NP neurotoxicity (neuroprotection) assay, MTT endpoint; assay type: cell-based; settings: for protection from oxidative damage elicited by 3-NP (FIG. 4): increasing concentrations, 1 h prior to 3 mM 3-NP for 18 h; for protection from oxidative damage elicited by 3-NP (positive controls, FIG. 2): 10 μM, 1 hour pretreatment, 3 mM 3-NP for 18 hours; for Protection vs 3NP / % Protection vs. 3-NP: 10 μM agent, 60 minutes incubation, 3 mM 3-NP, compared to 0.1% DMSO vehicle control
Procedure: For example, a cell viability assay can be utilized to detect and/or measure the ability of a compound disclosed herein to protect neuronal and/or glial cells. In some embodiments, mixed hippocampal cell cultures are prepared as described in, e.g., Haughey et al. (1999), J Neurochem, 73(4):1363-1374, and Haughey et al (2004), J Neurosci, 24(1):257-268. Subsequently, the cultures are pretreated for one hour in the presence of a candidate neuroprotective agent and then incubated with a cytotoxic agent for about 18 hours. Examples of cytotoxic agents include, but are not limited to, oxidative stressors (e.g., 3-nitropropionic acid (3-NP) or H2O2),.excitatory amino acids (e.g., kainate), or neurotoxic proteins (e.g., Hiv Tat, or Aβ peptides). […] The level of protection (“percent protection”) provided by the test compound at a given test concentration in vitro can be expressed as: […]
(§3) We evaluate the protective efficacy of a number of antifungal agents against many different neurotoxins, ranging from the chemotoxic 6-OHDA, NMDA, 3-nitropropionic acid (3-NP), and viral proteins such as Tat and gp120. Thus, we provide an in vitro neuroprotection assay using rat mixed hippocampal cultures, in which we evaluate the protective efficacy of neuroprotective compounds described herein. The oxidative stressor 3-NP is used to elicit toxicity in the rat hippocampal cultures to mimic the oxidative damage, reactive oxygen species production and ensuing neurodegeneration resulting from HIV infection. Another measure of neurotoxicity which results from HIV infection is evaluated by exposure of the hippocampal cultures to HIV-1 Tat (Li et al (2005), Neurotox Res, 8(1-2):119-134).
as §1, §2
Neuroprotection vs 3NP is measured as a percentage of neural and/or glial cell that are protected from 3NP induced cell death after incubation with the neuroprotective agent (10 μM) for 60 minutes when compared to a 0.1% DMSO vehicle control.
The neural and glial cells were preincubated with the neuroprotective compound for 1 hour followed by exposure to3 mM of the toxin for 18 hours.

[3] = system: rat mixed hippocampal cultures; assay: HIV-1 Tat neurotoxicity assay, MTT endpoint; assay type: cell-based; settings: for protection of hippocampal cultures from HIV-Tat toxicity (FIG. 5): increasing concentrations, 1 hour preincubation, 500 nM Tat1-72 for 18 hours; for protection from HIV-1 Tat toxicity (positive controls, FIG. 3): 10 μM, 1 hour pretreatment, 500 nM Tat for 18 hours
Description: as §3, §1
The assay system is validated using two neuroprotective agents, GPI 1046 and Resveratrol. […] Cultures are preincubated with GPI 1046 or Resveratrol for one hour prior to an 18 hour exposure to 3 mM 3-NP. […] The same neuroprotective compounds are evaluated for efficacy against HIV-1 Tat protein toxicity using the same 1 hour preincubation protocol.
The neural and glial cells were preincubated with the neuroprotective compound for 1 hour followed by exposure to 500 nM of Tat1-72 for 18 hours.

[4] = system: Mixed hippocampal cultures; assay: 6-OHDA neurotoxicity assay, MTT endpoint; assay type: cell-based, rat; settings: increasing concentrations, 1 h prior to 100 μM 6-OHDA for 18 h
Procedure: Mixed hippocampal cultures were treated with increasing concentrations of fluconazole (panel A) or voriconazole (panel B), for 1 h prior to exposure to 100 μM 6-hydroxydopamine (6-OHDA) for 18 h. Cell survival was measured following 6-OHDA by MTT assay. Statistical significance was determined by ANOVA with Newman-Keuls pairwise post hoc comparisons. Statistical significance * indicates p<0.05, ** indicates p<0.01; *** indicates p<0.00
as §1, with “The number of surviving cells is directly proportional to the level of the formazan product created.” left out

[5] = system: Human cortical neuronal cultures; assay: 6-OHDA toxicity assay in human neurons, MTT endpoint; assay type: cell-based; settings: increasing concentrations, 1 h prior to 100 μM 6-OHDA for 18 h
Procedure: (§4) Human cortical neuronal cultures were treated with increasing concentrations of fluconazole for 1 h prior to exposure to 3 mM 3-NP (panel A) or 100 μM 6-OHDA (panel B) for 18 h. Cell survival was measured by MTT assay. Statistical significance was determined by ANOVA with Newman-Keuls pairwise post hoc comparisons. Statistical significance * indicates p<0.05, ** indicates p<0.01; *** indicates p<0.001.
(§5) FIG. 9 illustrates the protection of human neuronal cultures from 3-NP and 6-OHDA with fluconazole (FIGS. 9A-9B, respectively). The neural and glial cells were preincubated with the neuroprotective compound for 1 hour followed by exposure to 3 mM 3-NP or 100 μM 6-OHDA for 18 hours.

[6] = system: Mixed hippocampal cultures; assay: ADP ribose toxicity assay, MTT endpoint; assay type: cell-based, rat; settings: increasing concentrations, 24 h prior to 1 mM ADP ribose for 18 h
Procedure: (§6) Mixed hippocampal cultures were treated with increasing concentrations of fluconazole (panel A) or voriconazole (panel B), for 24 h prior to exposure to 1 mM ADP ribose for 18 h. Cell survival was measured following ADP ribose by MTT assay. Statistical significance was determined by ANOVA with Newman-Keuls pairwise post hoc comparisons. Statistical significance * indicates p<0.05, ** indicates p<0.01; *** indicates p<0.001.
as §1, with “The number of surviving cells is directly proportional to the level of the formazan product created.” left out

[7] = system: Mixed hippocampal cultures; assay: NMDA excitotoxicity assay, MTT endpoint; assay type: cell-based, rat; settings: increasing concentrations, 1 h prior to 500 μM NMDA for 18 h
Procedure: as §6, with “1” for “24”, “500 μM N-methyl D-aspartate (NMDA)” for “1 mM ADP ribose”, “NMDA” for “ADP ribose”
as §1, with “The number of surviving cells is directly proportional to the level of the formazan product created.” left out

[8] = system: Human cortical neuronal cultures; assay: 3-NP toxicity assay in human neurons, MTT endpoint; assay type: cell-based; settings: increasing concentrations, 1 h prior to 3 mM 3-NP for 18 h
Procedure: as §4, §5

## O=C(O)CC[N+](=O)[O-] [3-NP, 3-nitropropionic acid]
[1]
  cytotoxicity: 25-35%

## Clc1ccc(COC(Cn2ccnc2)c2ccc(Cl)cc2Cl)c(Cl)c1 (stereo not shown) [miconazole]
[2]
  protection from oxidative damage elicited by 3-NP (FIG. 4): protect hippocampal neurons from oxidative damage elicited by 3-NP
[3]
  protection of hippocampal cultures from HIV-Tat toxicity (FIG. 5): concentration dependent protection

## Oc1ccc(C=Cc2cc(O)cc(O)c2)cc1 [Resveratrol]
[2]
  protection from oxidative damage elicited by 3-NP (positive controls, FIG. 2): significantly protected rat neurons from oxidative damage
[3]
  protection from HIV-1 Tat toxicity (positive controls, FIG. 3): protected hippocampal neurons from Tat toxicity

## CC(=O)N1CCN(c2ccc(OCC3COC(Cn4ccnc4)(c4ccc(Cl)cc4Cl)O3)cc2)CC1 (stereo not shown) [KETOCONAZOLE]
[2]
  Protection vs 3NP: 20.93%

## Clc1ccc(COC(Cn2ccnc2)c2ccc(Cl)cc2Cl)c(Cl)c1 (stereo not shown) [MICONAZOLE NITRATE, Miconazole Nitrate]
[2]
  % Protection vs. 3-NP: 81.6%
  Protection vs 3NP: 81.61%

## CCCCCCOc1ccccc1C(N)=O [EXALAMIDE]
[2]
  Protection vs 3NP: 9.19%

## C[C@@H]1[C@H](O)[C@@H](C)/C=C/C=C/CC/C=C/C=C/C=C/C=C/C(O[C@H]2O[C@H](C)[C@@H](O)[C@H](N)[C@@H]2O)CC2O[C@](O)(CC(O)C(O)CCC(O)CC(O)CC(O)CC(=O)O[C@H]1C)CC(O)C2C(=O)O (stereo partly shown) [NYSTATIN]
[2]
  Protection vs 3NP: 46.72%

## Clc1ccc(COC(Cn2ccnc2)c2ccc(Cl)cc2Cl)cc1 (stereo not shown) [econazole]
[2]
  protection from oxidative damage elicited by 3-NP (FIG. 4): protect hippocampal neurons from oxidative damage elicited by 3-NP
[3]
  protection of hippocampal cultures from HIV-Tat toxicity (FIG. 5): concentration dependent protection

## COc1ccc(/C=C/c2cc(O)cc(O[C@@H]3O[C@H](CO)[C@@H](O)[C@H](O)[C@H]3O)c2)cc1O [RHAPONTIN]
[2]
  Protection vs 3NP: 22.12%

## Clc1ccc(CSC(Cn2ccnc2)c2ccc(Cl)cc2Cl)cc1 (stereo not shown) [SULCONAZOLE NITRATE, Sulconazole Nitrate]
[2]
  % Protection vs. 3-NP: 18.21%
  Protection vs 3NP: 18.21%

## CC(=O)OCC(COC(C)=O)OC(C)=O [TRIACETIN]
[2]
  Protection vs 3NP: 45.14%

## Clc1ccccc1C(c1ccccc1)(c1ccccc1)n1ccnc1 [CLOTRIMAZOLE, Clotrimazole]
[2]
  % Protection vs. 3-NP: 12.6%
  Protection vs 3NP: 12.57%
  protection from oxidative damage elicited by 3-NP (FIG. 4): protect hippocampal neurons from oxidative damage elicited by 3-NP
[3]
  protection of hippocampal cultures from HIV-Tat toxicity (FIG. 5): concentration dependent protection

## Cc1cccc(N(C)C(=S)Oc2ccc3ccccc3c2)c1 [TOLNAFTATE, Tolnaftate]
[2]
  % Protection vs. 3-NP: 66.8%
  Protection vs 3NP: 66.83%
  protection from oxidative damage elicited by 3-NP (FIG. 4): protect hippocampal neurons from oxidative damage elicited by 3-NP
[3]
  protection of hippocampal cultures from HIV-Tat toxicity (FIG. 5): concentration dependent protection

## OC(Cn1cncn1)(Cn1cncn1)c1ccc(F)cc1F [FLUCONAZOLE, Fluconazole]
[2]
  % Protection vs. 3-NP: 13.3%
  Protection vs 3NP: 13.35%
  protection from oxidative damage elicited by 3-NP (FIG. 4): protect hippocampal neurons from oxidative damage elicited by 3-NP
[4]
  protection from 6-OHDA neurotoxicity (FIG. 7): protect hippocampal neurons from 6-OHDA neurotoxicity
[5]
  protection of human cortical neurons from 6-OHDA toxicity (FIG. 9B): protects human cortical neurons
[6]
  protection from toxicity elicited by ADP ribose (FIG. 8): protect hippocampal neurons from toxicity elicited by ADP ribose
[7]
  protection from excitotoxic lesions elicited by NMDA (FIG. 6): protect hippocampal neurons from excitotoxic lesions elicited by NMDA
[8]
  protection of human cortical neurons from 3-NP toxicity (FIG. 9A): protects human cortical neurons
[3]
  protection of hippocampal cultures from HIV-Tat toxicity (FIG. 5): concentration dependent protection

## Clc1ccc(COC(Cn2ccnc2)c2ccc(Cl)cc2Cl)cc1 (stereo not shown) [ECONAZOLE NITRATE, Econazole Nitrate]
[2]
  % Protection vs. 3-NP: 141.2%
  Protection vs 3NP: 141.18%

## C[C@@H](c1ncncc1F)[C@](O)(Cn1cncn1)c1ccc(F)cc1F [voriconazole]
[2]
  protection from oxidative damage elicited by 3-NP (FIG. 4): protect hippocampal neurons from oxidative damage elicited by 3-NP
[4]
  protection from 6-OHDA neurotoxicity (FIG. 7): protect hippocampal neurons from 6-OHDA neurotoxicity
[6]
  protection from toxicity elicited by ADP ribose (FIG. 8): protect hippocampal neurons from toxicity elicited by ADP ribose
[7]
  protection from excitotoxic lesions elicited by NMDA (FIG. 6): protect hippocampal neurons from excitotoxic lesions elicited by NMDA
[3]
  protection of hippocampal cultures from HIV-Tat toxicity (FIG. 5): concentration dependent protection

## CCC(C)(C)C(=O)C(=O)N1CCC[C@H]1C(=O)OCCCc1cccnc1 [GPI 1046]
[2]
  protection from oxidative damage elicited by 3-NP (positive controls, FIG. 2): significantly protected rat neurons from oxidative damage
[3]
  protection from HIV-1 Tat toxicity (positive controls, FIG. 3): protected hippocampal neurons from Tat toxicity

## Fc1ccc(C(c2ccccc2)(c2ccccc2F)n2ccnc2)cc1 (stereo not shown) [FLUTRIMAZOLE]
[2]
  Protection vs 3NP: 46.85%
